In brackets after ≈: the same amount, converted by molar mass. Activity calls are given as the source filed them. The calls are words filed in the database; no cut-off is given here.
How the values were obtained:
[1] = Cytotoxicity against mouse J774 macrophage assessed as cell viability at 10 ug/mL after 48 hrs by MTT assay; type: cell-based; conditions: J774 macrophage cells, read-out: Activity
[2] = Cytotoxicity against mouse J774 macrophage assessed as cell viability at 1 ug/mL after 48 hrs by MTT assay; type: cell-based; conditions: J774 macrophage cells, read-out: Activity
[3] = Cytotoxicity against Mycobacterium bovis Bacillus Calmette-Guerin infected mouse J774 macrophage assessed as cell viability at 1 ug/mL after 48 hrs by MTT assay; type: cell-based; conditions: J774 macrophage cells infected with Mycobacterium bovis BCG, read-out: Activity
[4] = system: Mycobacterium tuberculosis; test: Antimicrobial activity against Mycobacterium tuberculosis H37Rv ATCC 27294 assessed as minimum inhibitory concentration […] by micro plate Alamar blue assay; type: functional
[5] = Cytotoxicity against mouse J774 macrophage assessed as cell viability at 100 ug/mL after 48 hrs by MTT assay; type: cell-based; conditions: J774 macrophage cells, read-out: Activity
[6] = Cytotoxicity against Mycobacterium bovis Bacillus Calmette-Guerin infected mouse J774 macrophage assessed as cell viability at 10 ug/mL after 48 hrs by MTT assay; type: cell-based; conditions: J774 macrophage cells infected with Mycobacterium bovis BCG, read-out: Activity
[7] = Cytotoxicity against Mycobacterium bovis Bacillus Calmette-Guerin infected mouse J774 macrophage assessed as cell viability at 100 ug/mL after 48 hrs by MTT assay; type: cell-based; conditions: J774 macrophage cells infected with Mycobacterium bovis BCG, read-out: Activity

Structure (SMILES) | viability at 48 h, 10 ug/mL [1] | viability at 48 h, 1 ug/mL [2] | viability at 48 h, 1 ug/mL [3] | MIC [4] | viability at 48 h, 100 ug/mL [5] | viability at 48 h, 10 ug/mL [6] | viability at 48 h, 100 ug/mL [7]
NCCCCCCCCCN | 100% | 100% | 100% | 3.12 µg/mL (≈ 19.7 µM) | 100% | 100% | 71%
NCCCCCCCCCCCN | 100% | 100% | 58% | 3.12 µg/mL (≈ 16.7 µM) | 100% | 53% | 40%
NCCN [ETHYLENEDIAMINE] | 100% | 100% | 35% | inactive | 100% | 23% | 29%
CC[C@@H](CO)NCCN[C@@H](CC)CO [ETHAMBUTOL] | 93% | 100% | 92% | – | 82% | 88% | 85%
NCCCCCCCN | 100% | 100% | 79% | inactive | 100% | 78% | 70%
NCCCCN [PUTRESCINE] | 100% | 100% | 100% | inactive | 100% | 90% | 82%
NCCCCCN | 100% | 100% | 100% | inactive | 100% | 100% | 98%
NCCCCCCCCCCCCN | 100% | 100% | 56% | 2.5 µg/mL (≈ 12.5 µM) | 100% | 49% | 38%
NCCCCCCCCCCN | 100% | 100% | 56% | 3.12 µg/mL (≈ 18.1 µM) | 94% | 34% | 42%
NCCCN | 100% | 100% | 100% | inactive | 100% | 94% | 89%
NCCCCCCCCN [DIAMINOOCTANE] | 100% | 100% | 68% | inactive | 95% | 64% | 64%
NCCCCCCN | 100% | 100% | 98% | inactive | 100% | 92% | 76%

From ChEMBL document CHEMBL1155350, “Antitubercular activity of alpha,omega-diaminoalkanes, H2N(CH2)nNH2” (Bioorg Med Chem Lett, 2009)
